The target in assay [1] is T1, HCV polymerase (NS5B) type 1b (Hepatitis C virus genotype 1b, UniProt P26663).
T1 construct: a region encoding NS5B (J Virol 1991 March, 65(3), 1105-13, 544 amino acids after deletion of 47 amino acids on the C-terminal); 6xHis (C); made in house; host or cells: Escherichia coli
Kind of assay: Assay of enzyme (HCV polymerase) inhibitory activity, type 1b enzyme. It is filed as biochemical, HCV BK strain (type 1b). Conditions: HCV polymerase inhibitory activity (IC50), 1b, type 1b enzyme 0.5 μg/ml, 25° C., 60 min. The gist of the method: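 Rxn: NS5B 1b (BK, ΔC47, His6) 0.5 μg/ml; substrate RNA 5 μg/ml; ATP/GTP/CTP 50 μM, UTP 2 μM + [5,6-3H]UTP; 20 mM Tris pH 7.5, 5 mM MgCl2, 50 mM NaCl, 1 mM EDTA/DTT. 25 °C, 60 min. Stop with TCA/pyrophosphate, filter, scintillation count; IC50 vs. untreated.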

Assay [2] addresses T2, HCV polymerase (NS5B) type 1a (Hepatitis C virus genotype 1a, UniProt P26664).
T2 construct: made in house; host or cells: Escherichia coli (by the 'similar method' of the 1b enzyme)
The experiment in a line: Assay of enzyme (HCV polymerase) inhibitory activity, type 1a enzyme. It is filed as biochemical, HCV type 1a (cloned from the blood of patients). The note with it: HCV polymerase inhibitory activity (IC50), 1a, type 1a enzyme 1.5 μg/ml, 25° C., 60 min. The gist of the method: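 NS5B Δ47 C-term His6 (type 1a, 1.5 μg/ml); substrate RNA 5 μg/ml; ATP/GTP/CTP 50 μM, UTP 2 μM + [5,6-3H]UTP; Tris pH 7.5, MgCl2 5 mM; 25° C, 60 min. TCA/pyrophosphate stop, GF/B filter, scintillation. IC50 vs no-compound control.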

The results in this text go back to patent US8017612B2, “Piperazine compound and use thereof as a HCV polymerase inhibitor” (priority 2006, dated 2011).

Counter-ions that a name gives are not always drawn. A value given as a limit tells only on which side of the number the result lay.

Usually IC50 stands for the concentration at which inhibition is half-maximal. A higher IC50 goes with weaker potency.

For the compound `Cc1cc(C(C)C)ccc1CNC(=O)[C@H]1CN(c2nc(C)c(C(=O)O)s2)CCN1S(=O)(=O)c1ccc(C(F)(F)F)cc1` [Example 335, 2-[(R)-3-(4-isopropyl-2-methyl-benzylcarbamoyl)-4-(4-trifluoromethyl-benzenesulfonyl)-piperazin-1-yl]-4-methyl-thiazole-5-carboxylic acid], the 50% inhibitory concentration (IC50) in assay [1] and in assay [2] was less than 100 nM in each case.
For `Cc1nc(N2CCN(S(=O)(=O)c3ccc(C(F)(F)F)cc3)[C@@H](C(=O)NCc3ccc(C(C)C)cc3)C2)ncc1C(=O)OCc1ccccc1` [Example 336, 2-[(R)-3-(4-isopropyl-benzylcarbamoyl)-4-(4-trifluoromethyl-benzenesulfonyl)-piperazin-1-yl]-4-methyl-pyrimidine-5-carboxylic acid benzyl ester], the IC50 in assay [1] and in assay [2] was greater than 1000 nM throughout.
Turning to `COC(=O)c1cnc(N2CCN(S(=O)(=O)c3ccc(C(F)(F)F)cc3)[C@@H](C(=O)NCc3ccc(C(C)C)cc3)C2)nc1C` [Example 337, 2-[(R)-3-(4-isopropyl-benzylcarbamoyl)-4-(4-trifluoromethyl-benzenesulfonyl)-piperazin-1-yl]-4-methyl-pyrimidine-5-carboxylic acid methyl ester], the results for the concentration for half-maximal inhibition (IC50) in assay [1] and in assay [2] were 100 to 1000 nM and greater than 1000 nM, respectively.
For `Cc1nc(N2CCN(S(=O)(=O)c3ccc(C(F)(F)F)cc3)[C@@H](C(=O)NCc3ccc(C(C)C)cc3)C2)ncc1C(=O)O` [Example 338, 2-[(R)-3-(4-isopropyl-benzylcarbamoyl)-4-(4-trifluoromethyl-benzenesulfonyl)-piperazin-1-yl]-4-methyl-pyrimidine-5-carboxylic acid], the half-inhibitory concentration (IC50) is 100 to 1000 nM in assay [1] and greater than 1000 nM in assay [2].
As to `CCCc1ccc(CNC(=O)[C@H]2CN(c3nc(C)c(C(=O)O)s3)CCN2S(=O)(=O)c2ccc(C(F)(F)F)cc2)cc1` [Example 339, 4-methyl-2-[(R)-3-(4-propyl-benzylcarbamoyl)-4-(4-trifluoromethyl-benzenesulfonyl)-piperazin-1-yl]-thiazole-5-carboxylic acid], the 50% inhibitory concentration (IC50) in assay [1] and in assay [2] was less than 100 nM throughout.
Take `Cc1nc(N2CCN(S(=O)(=O)c3ccc(OC(F)(F)F)cc3)[C@@H](C(=O)NCc3ccc(C(C)C)cc3)C2)sc1C(N)=O` [Example 340, (R)-4-(5-carbamoyl-4-methyl-thiazol-2-yl)-1-(4-trifluoromethoxy-benzenesulfonyl)-piperazine-2-carboxylic acid 4-isopropyl-benzylamide]: the half-maximal inhibitory concentration (IC50) in assay [1] and in assay [2] was less than 100 nM in each case.
Take `CCCc1ccc(CNC(=O)[C@H]2CN(c3nc(C)c(C(=O)O)s3)CCN2S(=O)(=O)c2ccc(OC(F)(F)F)cc2)c(C)c1` [Example 341, 4-methyl-2-[(R)-3-(2-methyl-4-propyl-benzylcarbamoyl)-4-(4-trifluoromethoxy-benzenesulfonyl)-piperazin-1-yl]-thiazole-5-carboxylic acid]: the concentration for half-maximal inhibition (IC50) in assay [1] and in assay [2] was less than 100 nM in each case.
Consider `CC(C)c1ccc(CNC(=O)[C@H]2CN(c3ncc(C(=O)O)cn3)CCN2S(=O)(=O)c2ccc(C(F)(F)F)cc2)cc1` [Example 342, 2-[(R)-3-(4-isopropyl-benzylcarbamoyl)-4-(4-trifluoromethyl-benzenesulfonyl)-piperazin-1-yl]-pyrimidine-5-carboxylic acid], for which the IC50 is 100 to 1000 nM in assay [1] and greater than 1000 nM in assay [2].
Regarding `Cc1nc(N2CCN(S(=O)(=O)c3ccc(C(F)(F)F)cc3)[C@@H](C(=O)NCc3ccc(N(C)C)cc3)C2)sc1C(=O)O` [Example 343, 2-[(R)-3-(4-dimethylamino-benzylcarbamoyl)-4-(4-trifluoromethyl-benzenesulfonyl)-piperazin-1-yl]-4-methyl-thiazole-5-carboxylic acid], the IC50 in assay [1] and in assay [2] was less than 100 nM each time.
As for `Cc1nc(N2CCN(S(=O)(=O)c3ccc(C(C)C)cc3)[C@@H](C(=O)NCc3ccc(C(C)C)cc3)C2)sc1C(=O)O` [Example 344, 2-[(R)-4-(4-isopropyl-benzenesulfonyl)-3-(4-isopropyl-benzylcarbamoyl)-piperazin-1-yl]-4-methyl-thiazole-5-carboxylic acid], the concentration for half-maximal inhibition (IC50) in assay [1] and in assay [2] was less than 100 nM throughout.
`CC(C)c1ccc(CNC(=O)[C@H]2CN(C3CCNC3=O)CCN2S(=O)(=O)c2ccc(C(F)(F)F)cc2)cc1` (stereo partly drawn) [Example 345, (R)-4-(2-oxo-pyrrolidin-3-yl)-1-(4-trifluoromethyl-benzenesulfonyl)-piperazine-2-carboxylic acid 4-isopropyl-benzylamide]: the IC50 in assay [1] is 100 to 1000 nM; in assay [2] it was greater than 1000 nM.
As for `CN1CCN(CC(=O)N2CCN(S(=O)(=O)c3ccc(I)cc3)[C@@H](C(=O)NCc3ccc(N(C)C)cc3)C2)CC1` [Example 346, 1-(4-iodo-benzenesulfonyl)-4-[2-(4-methyl-piperazin-1-yl)-acetyl]-piperazine-2-carboxylic acid 4-dimethylamino-benzylamide], the half-inhibitory concentration (IC50) in assay [1] and in assay [2] was greater than 1000 nM in each case.
As to `CC(C)c1ccc(CNC(=O)[C@H]2CN(C(=O)Nc3ccncc3)CCN2S(=O)(=O)c2ccc(C(F)(F)F)cc2)cc1` [Example 347, (R)-4-(4-trifluoromethyl-benzenesulfonyl)-piperazine-1,3-dicarboxylic acid 3-(4-isopropyl-benzylamide) 1-pyridin-4-ylamide], the IC50 in assay [1] and in assay [2] was 100 to 1000 nM throughout.
`CC(C)c1ccc(CNC(=O)[C@H]2CN(C(=O)Nc3nnco3)CCN2S(=O)(=O)c2ccc(C(F)(F)F)cc2)cc1` [Example 348, (R)-4-(4-trifluoromethyl-benzenesulfonyl)-piperazine-1,3-dicarboxylic acid 3-(4-isopropyl-benzylamide) 1-[1,3,4]oxadiazol-2-ylamide]: the IC50 in assay [1] and in assay [2] was 100 to 1000 nM each time.
On to `CC(C)c1ccc(CNC(=O)[C@H]2CN(c3cc(C(=O)O)ccn3)CCN2S(=O)(=O)c2ccc(C(F)(F)F)cc2)cc1` [Example 349, 2-[(R)-3-(4-isopropyl-benzylcarbamoyl)-4-(4-trifluoromethyl-benzenesulfonyl)-piperazin-1-yl]-isonicotinic acid trifluoroacetate], for which the values for the IC50 in assay [1] and in assay [2] were 100 to 1000 nM and greater than 1000 nM, respectively.
For `CC(C)c1ccc(S(=O)(=O)N2CCN(C(N)=O)CC2C(=O)NCc2ccc(C(F)(F)F)cc2)cc1` (centres unmarked) [Example 350, 4-(4-isopropyl-benzenesulfonyl)-piperazine-1,3-dicarboxylic acid 1-amide 3-(4-trifluoromethyl-benzylamide)], the half-maximal inhibitory concentration (IC50) in assay [1] and in assay [2] was greater than 1000 nM in each case.
For the compound `CC(=O)N1CCN(S(=O)(=O)c2cc(Cl)cc(Cl)c2)C(C(=O)NCc2ccc(C(F)(F)F)cc2)C1` (centres unmarked) [Example 351, 4-acetyl-1-(3,5-dichloro-benzenesulfonyl)-piperazine-2-carboxylic acid 4-trifluoromethyl-benzylamide], the IC50 in assay [1] and in assay [2] was greater than 1000 nM each time.
As to `CC(C)c1ccc(CNC(=O)[C@H]2CN(c3nccn3C)CCN2S(=O)(=O)c2ccc(C(F)(F)F)cc2)cc1` [Example 352, (R)-4-(1-methyl-1H-imidazol-2-yl)-1-(4-trifluoromethyl-benzenesulfonyl)-piperazine-2-carboxylic acid 4-isopropyl-benzylamide], the results for the IC50 in assay [1] and in assay [2] were 100 to 1000 nM and greater than 1000 nM, respectively.
Taken in the same sequence, the figures for `CC(C)c1ccc(CNC(=O)[C@H]2CN(c3ncc[nH]3)CCN2S(=O)(=O)c2ccc(C(F)(F)F)cc2)cc1` [Example 353, (R)-4-(1H-imidazol-2-yl)-1-(4-trifluoromethyl-benzenesulfonyl)-piperazine-2-carboxylic acid 4-isopropyl-benzylamide] were 100 to 1000 nM and 100 to 1000 nM.
`CNC(=O)c1sc(N2CCN(S(=O)(=O)c3ccc(OC(F)(F)F)cc3)[C@@H](C(=O)NCc3ccc(C(C)C)cc3)C2)nc1C` [Example 354, (R)-4-(4-methyl-5-methylcarbamoyl-thiazol-2-yl)-1-(4-trifluoromethoxy-benzenesulfonyl)-piperazine-2-carboxylic acid 4-isopropyl-benzylamide]: the half-inhibitory concentration (IC50) in assay [1] and in assay [2] was less than 100 nM in each case.
As to `Cc1nc(N2CCN(S(=O)(=O)c3ccc(OC(F)(F)F)cc3)[C@@H](C(=O)NCc3ccc(C(C)C)cc3)C2)sc1C(=O)N(C)C` [Example 355, (R)-4-(5-dimethylcarbamoyl-4-methyl-thiazol-2-yl)-1-(4-trifluoromethoxy-benzenesulfonyl)-piperazine-2-carboxylic acid 4-isopropyl-benzylamide], the IC50 in assay [1] and in assay [2] was less than 100 nM in each case.
For `Cc1cc(C2CC2)ccc1CNC(=O)[C@H]1CN(c2nc(C)c(C(=O)O)s2)CCN1S(=O)(=O)c1ccc(OC(F)(F)F)cc1` [Example 356, 2-[(R)-3-(4-cyclopropyl-2-methyl-benzylcarbamoyl)-4-(4-trifluoromethoxy-benzenesulfonyl)-piperazin-1-yl]-4-methyl-thiazole-5-carboxylic acid], the IC50 in assay [1] and in assay [2] was less than 100 nM in each case.
